Test results as given in patent US20070207121A1, “Methods of Using and Compositions Comprising Selective Cytokine Inhibitory Drugs for Treatment and Management of Macular Degeneration” (priority 2003, published 2007).

How the values were obtained:
MD = conditions: cited from earlier work
patients with MD = conditions: intravitreal injection, over a one-year period; cited from earlier work
laser-induced CNVM = conditions: intravitreal injection, monkeys; cited from earlier work
TNF-α production = experiment: Inhibition of TNF-α production following LPS-stimulation of human PBMC and human whole blood (in vitro pharmacology studies); assay type: cell-based; conditions: more potent than thalidomide
Source text: One of the biological effects typically exerted by selective cytokine inhibitory drugs is the reduction of synthesis of TNF-α Specific selective cytokine inhibitory drugs enhance the degradation of TNF-αmRNA. TNF-α may play a pathological role in macular degeneration.
In a specific embodiment, the pharmacological properties of 3-(3,4-dimethoxy-phenyl)-3-(1-oxo-1,3-dihydro-isoindol-2-yl)-propionamide are characterized in in vitro studies. Studies examine the effects of the compound on the production of various cytokines. Inhibition of TNF-α production following LPS-stimulation of human PBMC and human whole blood by the compound is investigated in vitro. […] The pharmacological effects of 3-(3,4-dimethoxy-phenyl)-3-(1-oxo-1,3-dihydro-isoindol-2-yl)-propionamide may derive from its action as an inhibitor of the generation of inflammatory cytokines.

[1] = system: patients with macular degeneration; experiment: Clinical study in patients with macular degeneration, adjuvant to photodynamic therapy with verteporfin; assay type: in vivo, human; conditions: about 20 mg/day as adjuvant for 20 weeks with verteporfin photodynamic therapy
Method: Selective cytokine inhibitory drugs of the invention are administered in an amount of about 20 to about 1,200 mg per day to patients with macular degeneration. In a specific embodiment, clinical studies are performed with forty patients with macular degeneration, who are divided into two groups. The first group receives conventional treatment for closing the leaking choroidal vessels (characteristic of this disease) by photodynamic therapy with verteporfin. Opthalmol 1999 (117): 1329-1345. The second group receives the same conventional therapy with verteporfin and (+)-2-[1-(3-ethoxy-4 methoxyphenyl)-2-methylsulfonylethyl]-4 acetylaminoisoindoline 1,3-dione in an amount of about 20 mg/day as an adjuvant for 20 weeks.
However, the first group without (+)-2-[1-(3-ethoxy-4 methoxyphenyl)-2-methylsulfonylethyl]-4-acetylaminoisoindoline 1,3-dione experiences progressive reperfusion of the ablated vessels several weeks after treatment. Progressive visual loss follows which requires the photodynamic therapy to be repeated.

## interferon-α
MD; clinical trial
  efficacy at treating MD: ineffective
MD; in vivo
  adverse effects: high rate of adverse effects

## C[C@]12C=CC(=O)C=C1CC[C@H]1[C@@H]3C[C@@H](O)[C@](O)(C(=O)CO)[C@@]3(C)C[C@H](O)[C@@]12F [triamcinolone]
Patients with MD
  prevention of severe visual loss: fails to prevent severe visual loss
laser-induced CNVM
  growth of laser-induced CNVM: inhibits

## COc1ccc(C(CC(N)=O)N2Cc3ccccc3C2=O)cc1OC (stereo not shown) [3-(3,4-dimethoxy-phenyl)-3-(1-oxo-1,3-dihydro-isoindol-2-yl)-propionamide]
TNF-α production
  pharmacological activity profile, potency relative to thalidomide: five to fifty

## CCOc1cc(C(CS(C)(=O)=O)N2C(=O)c3cccc(NC(C)=O)c3C2=O)ccc1OC (single isomer, unassigned; (+)) [(+)-2-[1-(3-ethoxy-4 methoxyphenyl)-2-methylsulfonylethyl]-4 acetylaminoisoindoline 1,3-dione]
[1]
  effects of the photodynamic therapy: indefinitely prolong
  neovascular cascade: sufficiently hindered
